Reference: US7825256B2, “Inducible nitric oxide synthase dimerization inhibitors” (Kalypsys, Inc., priority 2004, dated 2010)
Where a name gives a salt, the structure may show the parent alone.

Tests used:
[1] = tested on: rat; assay: Capsaicin test (topical capsaicin allodynia); type: in vivo
Excerpt: Subcutaneous injection of dilute capsaicin into the rat hind paw produces transient but pronounced hyperalgesia, allodynia and pain. This effect may be mitigated by pretreatment with a suitable agent, such as a topical anaesthetic or analgesic, and the extent of this mitigation quantified by evaluation of pain-related behaviors in response to noxious or innocuous stimuli as described above; rats pretreated with a known analgesic display fewer pain and allodynia related behaviors than controls. Compounds may be evaluated for their efficacy as potential analgesics in this manner as well.
Male Lewis rats weighing between 180 and 250 grams are used. The right hind paw is dipped into vehicle (100% acetone) or compound in vehicle for 30 seconds and then allowed to air-dry for 30 sec. To prevent the animal from licking the compound off the paw, the paw is wiped twice with a wet paper towel. At 15 min after application of vehicle or compound, 0.1 mg in 10 μL capsaicin is injected into right hind paw. Measurement of allodynia is performed 0.5 to 1 hour after capsaicin injection.
One procedure for quantifying allodynia measures the rat behavioral response to presentation of von Frey filaments of increasing diameter. Each rat is placed in a small, clear cage on an elevated screen. Beginning with 4.31, the von Frey hair is presented perpendicularly to the right mid-plantar hind paw with sufficient force to cause slight buckling, for 6-8 seconds. If presentation lifts the hind paw it is disregarded, as it changes the nature of the stimulus. A positive response is noted if the paw is sharply withdrawn upon onset or offset of stimulus. Ambulation is considered an ambiguous response and the presentation is repeated. Stimuli are presented in a consecutive fashion. A positive response would call for the presentation of the immediately weaker weight filament next; likewise, no response would call for the immediately stronger. Presentations continue until a series of six consecutive responses from the first change is logged. The next rat is then tested. This procedure is standard in the art for the measurement of allodynia, but any other method known in the art which provides adequate sensitivity and reproducibility may be substituted.

[2] = target: T1, hiNOS (Homo sapiens, UniProt P35228); assay: DAN assay, hiNOS expressed in transiently transfected HEK293 cells; type: cell-based; conditions: HEK293 cells transiently transfected with hiNOS
T1 construct: expressed in transfected cells; host or cells: HEK293
In short: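 Human iNOS, nNOS or eNOS transiently expressed in HEK293 cells, with nNOS and eNOS needing added cofactors for activity. NO production is read as nitrite by fluorometry: 2,3-diaminonaphthalene forms fluorescent […], detecting 10 nM to 10 μM nitrite.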

[3] = at 0.5 hr after capsaicin injection
[4] = at 1 hr after capsaicin injection

SMILES	Topical Capsaicin Allodynia [1, 3]	Topical Capsaicin Allodynia [1, 4]	EC50 [2] [nM]
CN(CCCNCc1ccccc1)c1nc(-n2ccnc2)ns1 [Example 12, N′-Benzyl-N-(3-imidazol-1-yl-[1,2,4]thiadiazol-5-yl)-N-methyl-propane-1,3-diamine]	− at 0.5 hr ((−) = <15% inhibition)	− at 1 hr ((−) = <15% inhibition)	> 50000
Cc1cc(CNC(=O)NCCc2ccc3c(c2)OCO3)nc(-n2ccnc2)n1 [Example 13, 1-(2-Benzo[1,3]dioxol-5-yl-ethyl)-3-(2-imidazol-1-yl-6-methyl-pyrimidin-4-ylmethyl)-urea]	− at 0.5 hr ((−) = <15% inhibition)	+ at 1 hr ((+) = >15% inhibition)	< 1000
O=C(NCCc1ccc2c(c1)OCO2)[C@H]1C[C@@H](O)CN1c1nc(-n2ccnc2)ns1 [Example 28, (2R,4R)-4-Hydroxy-1-(3-imidazol-1-yl-[1,2,4]thiadiazol-5-yl)-pyrrolidine-2-carboxylic acid (2-benzo[1,3]dioxol-5-yl-ethyl)-amide]	+ at 0.5 hr ((+) = >15% inhibition)	+ at 1 hr ((+) = >15% inhibition)	< 1000
O=C(NCCc1ccc2c(c1)OCO2)[C@H]1CCCN1c1nc(-n2ccnc2)ns1 [Example 29, (R)-1-(3-Imidazol-1-yl-[1,2,4]thiadiazol-5-yl)pyrrolidine-2-carboxylic acid (2-benzo[1,3]dioxol-5-yl-ethyl)-amide]	− at 0.5 hr ((−) = <15% inhibition)	+ at 1 hr ((+) = >15% inhibition)	< 1000
Cc1cc(C(C)NCCNCc2ccc3c(c2)OCO3)nc(-n2ccnc2)n1 (stereo not shown) [Example 38, N-Benzo[1,3]dioxol-5-ylmethyl-N′-[1-(2-imidazol-1-yl-6-methyl-pyrimidin-4-yl)-ethyl]-ethane-1,2-diamine]	+ at 0.5 hr ((+) = >15% inhibition)	+ at 1 hr ((+) = >15% inhibition)	< 1000
c1cn(-c2nsc(N(CCCNCc3ccc4c(c3)OCO4)Cc3nccs3)n2)cn1 [Example 49, N′-Benzo[1,3]dioxol-5-ylmethyl-N-(3-imidazol-1-yl-[1,2,4]thiadiazol-5-yl)-N-thiazol-2-ylmethyl-propane-1,3-diamine]	+ at 0.5 hr ((+) = >15% inhibition)	+ at 1 hr ((+) = >15% inhibition)	< 1000
c1csc(CN(CCCNCc2ccc3c(c2)OCO3)c2nc(-n3ccnc3)ns2)c1 [Example 50, N′-Benzo[1,3]dioxol-5-ylmethyl-N-(3-imidazol-1-yl-[1,2,4]thiadiazol-5-yl)-N-thiophen-2-ylmethyl-propane-1,3-diamine]	+ at 0.5 hr ((+) = >15% inhibition)	+ at 1 hr ((+) = >15% inhibition)	–
CN(CCCN(CC(N)=O)c1nc(-n2ccnc2)ns1)Cc1ccc2c(c1)OCO2 [Example 59, 2-[[3-(Benzo[1,3]dioxol-5-ylmethyl-methyl-amino)-propyl]-(3-imidazol-1-yl-[1,2,4]thiadiazol-5-yl)-amino]-acetamide]	+ at 0.5 hr ((+) = >15% inhibition)	+ at 1 hr ((+) = >15% inhibition)	< 1000
Cc1cc(C2C(C(=O)NCCc3ccc4c(c3)OCO4)CCN2C)nc(-n2ccnc2)n1 (stereo not shown) [Example 125, 2-(2-Imidazol-1-yl-6-methyl-pyrimidin-4-yl)-1-methyl-pyrrolidine-3-carboxylic acid (2-benzo[1,3]dioxol-5-yl-ethyl)-amide]	–	–	< 1000
O=C(NCCc1ccc2c(c1)OCCO2)[C@H]1C[C@H](O)CN1c1nc(-n2ccnc2)ns1 [Example 126, (2R,4S)-4-Hydroxy-1-(3-imidazol-1-yl-[1,2,4]thiadiazol-5-yl)-pyrrolidine-2-carboxylic acid [2-(2,3-dihydro-benzo[1,4]dioxin-6-yl)-ethyl]-amide]	–	–	< 1000
CN(CCNCCc1ccc2c(c1)OCO2)c1nc(-n2ccnc2)ns1 [Example 127, N′-(2-Benzo[1,3]dioxol-5-yl-ethyl)-N-(3-imidazol-1-yl-[1,2,4]thiadiazol-5-yl)-N-methyl-ethane-1,2-diamine]	–	–	< 1000
CN(CCc1ccc2c(c1)OCO2)CCN(C)c1nc(-n2ccnc2)ns1 [Example 128, N-(2-Benzo[1,3]dioxol-5-yl-ethyl)-N′-(3-imidazol-1-yl-[1,2,4]thiadiazol-5-yl)-N,N′-dimethyl-ethane-1,2-diamine]	–	–	< 1000
O=C(NCCc1ccc2c(c1)OCO2)[C@H]1Cc2ccccc2CN1c1nc(-n2ccnc2)ns1 [Example 129, (R)-2-(3-Imidazol-1-yl-[1,2,4]thiadiazol-5-yl)-1,2,3,4-tetrahydro-isoquinoline-3-carboxylic acid (2-benzo[1,3]dioxol-5-yl-ethyl)-amide]	–	–	< 1000
Cc1cc(C2CCCCN2CCN(C)Cc2ccc3c(c2)OCO3)nc(-n2ccnc2)n1 (stereo not shown) [Example 134]	–	–	< 1000
CCOC(=O)CC(NCCNCc1ccc2c(c1)OCO2)c1cc(C)nc(-n2ccnc2)n1 (stereo not shown) [Example 135, Benzo[1,3]dioxol-5-ylmethyl-{2-[2-ethoxycarbonyl-1-(2-imidazol-1-yl-6-methyl-pyrimidin-4-yl)-ethylamino]-ethyl}-ammonium trifluoroacetate]	–	–	< 1000
CNC(=O)CC(NCCNCc1ccc2c(c1)OCO2)c1cc(C)nc(-n2ccnc2)n1 (stereo not shown) [Example 136, Benzo[1,3]dioxol-5-ylmethyl-{2-[1-(2-imidazol-1-yl-6-methyl-pyrimidin-4-yl)-2-methylcarbamoyl-ethylamino]-ethyl}-ammonium trifluoroacetate]	–	–	< 1000
CNC(=O)C1CCN(CCNCc2ccc3c(c2)OCO3)C1c1cc(C)nc(-n2ccnc2)n1 (stereo not shown) [Example 137, 2-(2-(1H-Imidazol-1-yl)-6-methylpyrimidin-4-yl)-1-(2-(benzo[d][1,3]dioxol-5-ylmethylamino)ethyl)-N-methylpyrrolidine-3-carboxamide]	–	–	< 1000
Cc1cc(C2CCC(=O)N2CCNCc2ccc3c(c2)OCO3)nc(-n2ccnc2)n1 (stereo not shown) [Example 138, 1-{2-[(Benzo[1,3]dioxol-5-ylmethyl)-amino]-ethyl}-5-(2-imidazol-1-yl-6-methyl-pyrimidin-4-yl)-pyrrolidin-2-one hydrochloride]	–	–	< 1000
Cc1cc(C2CCC(=O)N2CCNCc2ccc3c(c2)OCCO3)nc(-n2ccnc2)n1 (stereo not shown) [Example 139, 1-{2-[(2,3-Dihydro-benzo[1,4]dioxin-6-ylmethyl)-amino]-ethyl}-5-(2-imidazol-1-yl-6-methyl-pyrimidin-4-yl)-pyrrolidin-2-one hydrochloride]	–	–	< 1000
Cc1cc(C2C(c3nccs3)CCN2CCNCc2ccc3c(c2)OCO3)nc(-n2ccnc2)n1 (stereo not shown) [Example 140, Benzo[1,3]dioxol-5-ylmethyl-{2-[2-(2-imidazol-1-yl-6-methyl-pyrimidin-4-yl)-3-thiazol-2-yl-pyrrolidin-1-yl]-ethyl}-amine]	–	–	< 1000
CCOC(=O)c1csc(C2CCN(CCNCc3ccc4c(c3)OCO4)C2c2cc(C)nc(-n3ccnc3)n2)n1 (stereo not shown) [Example 141, 2-[1-{2-[(Benzo[1,3]dioxol-5-ylmethyl)-amino]-ethyl}-2-(2-imidazol-1-yl-6-methyl-pyrimidin-4-yl)-pyrrolidin-3-yl]-thiazole-4-carboxylic acid ethyl ester]	–	–	< 1000
Cc1cc(C2CCCCN2CCNCc2ccc3c(c2)OCO3)nc(-n2ccnc2)n1 (stereo not shown) [Example 142, Benzo[1,3]dioxol-5-ylmethyl-{2-[2-(2-imidazol-1-yl-6-methyl-pyrimidin-4-yl)-piperidin-1-yl]-ethyl}-amine]	–	–	< 1000
Cc1cc(C(C)(C)CNC(=O)CCc2ccc3c(c2)OCO3)nc(-n2ccnc2)n1 [Example 143, 3-Benzo[1,3]dioxol-5-yl-N-[2-(2-imidazol-1-yl-6-methyl-pyrimidin-4-yl)-2-methyl-propyl]-propionamide]	–	–	< 1000
Cc1cc(C(C)(C)CNC(=O)NCc2ccc3c(c2)OCO3)nc(-n2ccnc2)n1 [Example 144, 1-Benzo[1,3]dioxol-5-ylmethyl-3-[2-(2-imidazol-1-yl-6-methyl-pyrimidin-4-yl)-2-methyl-propyl]-urea]	–	–	< 1000
CN(CCCNCc1ccc2c(c1)OCO2)c1nc(-n2cncn2)ns1 [Example 145, N′-Benzo[1,3]dioxol-5-ylmethyl-N-methyl-N-(3-[1,2,4]triazol-1-yl-[1,2,4]thiadiazol-5-yl)-propane-1,3-diamine]	–	–	> 50000
